These results are taken from US20180015017A1, “USE OF GLUCOSYLGLYCEROL” (Bitop AG, priority 2008, published 2018).

Test [1] deals with SOD-1. Kind of test: Expression of SOD-1 mRNA in keratinocytes (33P-labeled cDNA chip, phosphor imaging). Format: cell-based, human. To be noted: for Upregulation of the cytosolic SOD-1: relative amount of hybridized targets (radioactivity, phosphor imaging): NHEK keratinocytes, 0.5-% (w/w) aqueous solution; for increase of the expression of SOD-1: keratinocytes, 0.5-% glucosylglycerol solution. The protocol:
(§1) In these tests appropriate cell cultures were treated with a glucosylglycerol solution and the transcribed mRNA quantified. For this purpose the mRNA was first extracted to produce a ^33P labeled target with the help of a reverse transcriptase. Following this, these targets were applied to a cDNA chip and the radioactivity measured by means of the phosphor imaging method. The cDNA chip contained an array of the cDNAs of various proteins.
(§2) The investigations were carried out with epidermal keratinocytes (NHEK, normal human epidermal keratinocytes) and dermal fibroblasts (NHDF, normal human dermal fibroblasts). In the case of the keratinocytes a 0.5-% (w/w) and in the case of the fibroblasts a 1-% (w/w) aqueous glucosylglycerol solution was used for the treatment.
Keratinocytes: Keratinocyte-SFM (Invitrogen 17005-034) blended with epidermal growth factor (EGF) 0.25 ng/ml, pituitary extract (PE) 25 μg/ml (Invitrogen 3700015), Gentamycin […] (Sigma G1397).
(§3) Culturing took place for a period of 24 and 96 hours. At the end of the incubation period the cells were washed with PBS solution (Invitrogen 14190094).
(§4) The extraction of mRNA of each culture was achieved using TriReagent as per a standard protocol. The relevant cDNAs with ^33P-labeled targets was produced by reverse transcription of mRNA using [α^33P]-dATP and oligodT.
(§5) The labeled cDNA targets were hybridized to the specific cDNA probes covalently fixed to minichips. After thorough washing the relative amount of the hybridized targets was determined by means of the phosphor imaging method. This analysis was performed by measuring the radioactivity by means of a “Cyclone” Phosphor Imager (Packard Instruments; 72 hours exposure time) and using the ImageQuant TL-Software (Amersham Biosiences).

Test [2] relates to SOD-2. Briefly: Expression of SOD-2 mRNA in fibroblasts (33P-labeled cDNA chip, phosphor imaging). In kind it is cell-based, human. The conditions noted are these: for Upregulation of SOD-2: relative amount of hybridized targets (radioactivity, phosphor imaging): NHDF fibroblasts, 1-% (w/w) aqueous solution. The method, then: as §1, §2
Fibroblasts: DMEM (Invitrogen 21969035), blended with L-glutamine 2 mM (Invitrogen 25030024), Penicillin 50 Ul/ml/Streptomycin 50 μg/ml (Invitrogen 15070063), fetal calf serum 10% (FCS, Invitrogen 10270098).
as §3, §4, §5

For `OCC(CO)O[C@H]1O[C@H](CO)[C@@H](O)[C@H](O)[C@H]1O` [glucosylglycerol, 2-O-α-D-glucosylglycerol], the “Upregulation of the cytosolic SOD-1: relative amount of hybridized targets (radioactivity, phosphor imaging)” value is 85 in test [1] (24 h, control 18.2) and 182 in test [1] (96 h, control 9.3). Moreover, the “increase of the expression of SOD-1” value is given as 4.7 times in test [1] (within 24 hours) and 19.6 times in test [1] (within 96 hours). In addition, the “Upregulation of SOD-2: relative amount of hybridized targets (radioactivity, phosphor imaging)” value in test [2] (24 h, control 16.5) is reported as 419; in test [2] (96 h, control 9.1), 313. The “higher expression of SOD-2” value in test [2] (fibroblasts, 1-% glucosylglycerol solution, within 24 hours) turned out to be 25.4 times. The “increase of expression of SOD-2” value in test [2] (fibroblasts, 1-% glucosylglycerol solution, within 96 hours) is 34.4 fold.
